Assay results reported in patent US20050124631A1, “Inhibitors of polyq-aggregation” (priority 2001, published 2005).

melting point: 206 °C
SMILES: Cc1ccc(Cl)c2sc(N)nc12 [Example 2, 2-Amino-7-chloro-4-methylbenzothiazole]
